Several values for one entry are separate records, joined by “and”; a condition that tells them apart may be missing. Identical values can stand only once.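 A five-concentration, 48-hour dose response in 96-well plates underlies each endpoint, interpolated linearly between surrounding concentrations. At the GI50, growth is halved. The concentration for full growth arrest is given as TGI.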
Experiments:
Assay in all cases: NCI tumour cell line growth inhibition, 48 h
[1] = test system: K-562 leukemia
[2] = test system: OVCAR-3 ovarian
[3] = test system: HL-60(TB) leukemia
[4] = test system: LOX IMVI melanoma
[5] = test system: M14 melanoma
[6] = test system: SK-MEL-5 melanoma
[7] = test system: NCI-H460 lung
[8] = test system: UO-31 renal
[9] = test system: OVCAR-5 ovarian
[10] = test system: HOP-92 NSCLC

SMILES	TGI [1]	TGI [2] [µM]	TGI [3]	TGI [4] [µM]	TGI [5] [µM]	TGI [6] [µM]	TGI [7] [µM]	TGI [8] [µM]	TGI [9] [µM]	GI50 [10] [nM]	TGI [10] [µM]	GI50 [3] [nM]	GI50 [9] [nM]	GI50 [1] [nM]	GI50 [2] [nM]	GI50 [4] [nM]	GI50 [5] [nM]	GI50 [6] [nM]	GI50 [7] [nM]	GI50 [8] [nM]
O=C(O)CC(C(=O)O)C1c2ccccc2-c2ccccc21 (centres undefined)	> 100 µM	> 100	> 100 µM	> 100	> 100	> 100	> 100	> 100	–	–	–	–	–	–	–	–	–	–	–	–
O=S(=O)(O)c1cc(N=Nc2cc(S(=O)(=O)O)c3ccccc3c2O)ccc1/C=C/c1ccc(N=Nc2cc(S(=O)(=O)O)c3ccccc3c2O)cc1S(=O)(=O)O	> 67.1 µM and 78.1 µM	> 1000	41.2 µM and 104 µM	> 461	> 355	239	> 881	> 527	472	> 262000	> 463	43400	–	–	–	–	–	–	–	–
Nc1cc(S(=O)(=O)O)cc2cc(S(=O)(=O)O)c(N=Nc3ccc(-c4ccc(N=Nc5c(S(=O)(=O)O)cc6cc(S(=O)(=O)O)cc(N)c6c5O)cc4)cc3)c(O)c12	> 100 µM	> 100	> 100 µM	> 100	–	> 100	> 100	> 100	> 100	–	> 100	–	–	–	–	–	–	–	–	–
C=C1C(=O)CCC1C(=O)O (centres undefined)	> 100 µM	> 100	> 100 µM	> 100	> 100	> 100	> 100	> 100	> 100	–	–	–	–	–	–	–	–	–	–	–
C=C(C)C(=O)OC1C(C(C)CCCO)=C(CO)CC2OC(=O)C(=C)C21 (centres undefined)	49.4 µM	54.5	> 100 µM	24.5	33.8	28.5	37.8	–	54.3	–	44.2	–	–	–	–	–	–	–	–	–
COc1ccc(-c2nn(-c3ccc(NC(=O)Nc4ccc(Cl)c(Cl)c4)cc3)cc2-c2ccncc2)cc1Cl	> 100 µM	> 100	6.6 µM	10.4	5.04	5.96	8.54	> 100	> 100	1820	5.72	2210	2800	1430	2640	2240	1790	2260	2140	1510
C=C(C)C1CC2=C(O1)C(=O)c1ccccc1C2=O (centres undefined)	42.1 µM	34.4	15 µM	> 100	33.1	28.1	33.8	–	–	–	30.8	–	–	–	–	–	–	–	–	–
C=C1C(=O)OC2/C=C(\C)C(=O)CC3OC(C)(C)OC3(C)CC(OC(=O)/C(C)=C/C)C12 (centres undefined)	> 60.9 µM	> 56.5	> 23.4 µM	27.3	> 70.3	> 91.2	46.2	29.3	47.2	–	38.1	–	–	–	–	–	–	–	–	–
OC(Cc1ccccc1)(Cc1ccccc1)c1ccccc1	> 100 µM	32.8	52.8 µM	37.1	33.3	32.5	44.4	32.4	38	–	32.2	–	–	–	–	–	–	–	–	–
O=C(/C=c1\oc(=O)/c(=C/C(=O)c2ccc(Cl)cc2)oc1=O)c1ccc(Cl)cc1	> 100 µM	> 100	> 100 µM	> 100	> 100	> 100	> 100	> 100	> 100	–	> 100	–	–	–	–	–	–	–	–	–
CC(C)(C)C1(c2ccc(C3(c4ccccc4)Oc4ccccc4S3)[nH]2)Oc2ccccc2S1 (centres undefined)	> 100 µM	> 100	> 100 µM	> 100	> 100	> 100	> 100	> 100	> 100	–	> 100	–	–	–	–	–	–	–	–	–
COc1cc(C(C)(C)C)cc(OC)c1C(O)(c1c(OC)cc(C(C)(C)C)cc1OC)c1c(OC)cc(C(C)(C)C)cc1OC	–	0.894	0.394 µM	1.45	1.13	0.552	0.853	0.745	1.02	–	–	140	327	–	278	357	381	236	288	241
CCN=C=NCCCN(C)C	> 100 µM	> 100	> 100 µM	> 100	> 100	> 100	> 100	> 100	> 100	–	> 100	–	–	–	–	–	–	–	–	–
O=Nc1ccc(O)c2ncccc12	> 100 µM	12.4	> 41.6 µM	18.6	20.7	19.7	12.8	13.5	32.5	–	11.9	–	–	–	–	–	–	–	–	–
C[N+]1(C)CCOC(O)(c2ccccc2)C1 (centres undefined)	> 100 µM	> 100	> 100 µM	> 100	> 100	> 100	> 100	> 100	> 100	–	> 100	–	–	–	–	–	–	–	–	–
Cc1ccc(P(c2ccc(C)cc2)c2ccc(C)cc2)cc1	> 100 µM	29.5	> 100 µM	30.4	50.3	33.1	36.5	4.54	61.1	–	20.8	–	–	–	–	–	–	–	–	–
O=[N+]([O-])c1ccc(/C=N\Nc2ccc([N+](=O)[O-])cn2)cc1	> 100 µM	> 100	> 100 µM	–	> 100	> 100	> 100	> 100	> 100	–	> 100	–	–	–	–	–	–	–	–	–
C=C1CC23CCC4C(C)(C(=O)O)CCCC4(C)C2CCC1C3 (centres undefined)	> 100 µM	> 100	–	> 100	> 100	–	59.1	88.2	> 100	–	94.3	–	–	–	–	–	–	–	–	–
COc1ccc2[nH]c3c([N+](=O)[O-])ccc(Cl)c3c(=O)c2c1	13.2 µM	31.7	9.84 µM	34.5	35.9	55.2	> 95.4	35.5	> 58	–	29.7	–	–	–	–	–	–	–	–	–
COC1/C=C\OC2(C)Oc3c(C)c(O)c4c(O)c(c(/C=N\OCCCc5ccccc5)c(O)c4c3C2=O)NC(=O)/C(C)=C\C=C/C(C)C(O)C(C)C(O)C(C)C(OC(C)=O)C1C (centres undefined)	15.4 µM	9.61	5.38 µM	10.2	6.76	3.55	15.6	–	20.4	–	6.26	–	–	–	–	–	–	–	–	–
C=C(C)[C@@H]1CC[C@]2(C(=O)Nc3ccccn3)CC[C@]3(C)[C@H](CC[C@@H]4[C@@]5(C)CCCNC(C)(C)[C@@H]5CC[C@]43C)[C@@H]12	4.78 µM	2.92	4.28 µM	–	–	–	3.3	2.8	3.89	2060	7.64	1820	1920	1450	1540	–	–	–	1710	1440
CCN(CC)C(=S)SC(=S)N(CC)CC	> 100 µM	> 94.4	> 100 µM	58.9	> 100	> 46.5	> 100	> 76.3	> 100	–	> 87.3	–	–	–	–	–	–	–	–	–
CC(=O)c1cccc(Nc2c3ccccc3nc3occc23)c1	> 100 µM	5.99	12.4 µM	> 100	24.4	23	> 100	> 100	> 100	–	62.2	–	–	–	–	–	–	–	–	–
C=C(CN(C)C)C(=O)c1ccc(C)cc1C	9.74 µM	21.3	11.6 µM	15.2	14.5	28.8	46.9	22.3	31.1	–	10.4	–	–	–	–	–	–	–	–	–
CC(C)=CCc1c(O)ccc2c1OC1c3ccc(O)c(CC=C(C)C)c3OCC21 (centres undefined)	25.3 µM	27	31.4 µM	22.3	–	17.8	16.1	24	27.1	–	> 100	–	–	–	–	–	–	–	–	–
C[C@H](C(=O)N[C@@H](Cc1ccc(-c2ccccc2)cc1)C(=O)NC1CC(C)(C)N(C)C(C)(C)C1)c1ccc(-c2ccccc2)c(F)c1	–	2.56	–	–	3.39	2.94	2.43	2.64	3	1260	2.7	–	1460	–	1190	–	1740	1590	1060	1270

— PubChem BioAssay (NCI)
